Reference: PubChem BioAssay AID1963985 (Molecular Pharmacology Branch, DTP, NCI, 2024)

System: 252836-082-R-J2-PDC tumor spheroids, viability
Experiment: Anticancer human tumor 252836-082-R-J2-PDC patient-derived head and neck squamous cell carcinoma cell line growth inhibition [PI3K]
Details: spheroids with HUVEC and MSC; for IC50: curve of first compound; for viability, T/C: stronger effect = lower value
Description: Combinatorial screen of targeted agents with the PI3K inhibitors inavolisib, alpelisib, duvelisib, and copanlisib in multi-cell type tumor spheroids
A high-throughput screen of multi-cell type tumor spheroids was designed to identify active combinations of targeted small molecules and PI3K pathway inhibitors. Complex spheroids include a stromal component modeled by human endothelial cells (HUVEC) and fibroblasts modeled by human mesenchymal stem cells (MSCs). The concentration ranges selected for each drug and investigational agent were based upon clinically achievable concentrations if the clinical Cmax of the agent was known.
Compounds. The drugs and investigational agents: inavolisib (NSC800729), alpelisib (NSC765974), duvelisib (NSC772469), copanlisib (NSC816437), ipatasertib (NSC767898), afuresertib (NSC778305), talazoparib (NSC767125), sapanisertib (NSC764658), selumetinib (NSC741078), tovorafenib (DAY101, NSC766906), vemurafenib (NSC761431), ravoxertinib (NSC781343), sotorasib (NSC818433), MRTX1133 (NSC 836407), abemaciclib (NSC 768073), palbociclib (NSC758247), venetoclax (NSC 766270), SY5609 (NSC837396), enzalutamide (NSC755605), and darolutamide (NSC825331), were obtained from the National Cancer Institute (NCI) Developmental Therapeutics Program Chemical Repository. The FDA-approved anticancer drug set is available from the NCI Developmental Therapeutics Program. […] The stock solutions were prepared in dimethyl sulfoxide (DMSO, Sigma-Aldrich, St. Louis, MO, cat. D2650) at 800-fold the tested concentration and stored at -70 degrees C prior to their use. All drugs and investigational agents were tested over a range starting from a high concentration at or near the clinical Cmax and decreasing in half-log increments. If the clinical Cmax for an agent had not been determined, the highest concentration tested was 10 microM.
Cell Culture. All cells were maintained in an incubator at 37 degrees C and 5% CO2 with 95% humidity. The PDC lines were cultured according to standard operating procedures established by the NCI PDMR (https://pdmr.cancer.gov/sops/default.htm). All PDCs were thawed and cultured in Matrigel-coated flasks prepared with a working solution of 1X Ham's F-12 nutrient mix, without supplementation (Invitrogen, Waltham, MA, cat. 11765054), 100 U/mL penicillin-streptomycin (Invitrogen, cat. 15140122), and 2.5% Matrigel (Corning Inc., Corning, NY, cat. 354248) for the first three passages. The 354836-022-R-J1-PDC, 475296-252-R-J1-PDC, and 997726-040-R-J2-PDC lines were cultured in 6A media, which includes advanced DMEM/F-12 (Thermo Fisher Scientific, cat. 12634028), 10 mM HEPES (Thermo Fisher Scientific, cat. 15630080), 1X GlutaMAX supplement (Thermo Fisher Scientific, cat. 35050061), 0.1 mg/mL primocin (InvivoGen, San Diego, CA, cat. ant-pm-2), 10% defined fetal bovine serum, heat inactivated (HyClone Laboratories Inc., Logan, UT, cat. SH30070.03HI), 50% L-WRN conditioned media (ATCC, cat. CRL-3276), 1.25 mM N-Acetyl-L-cysteine (Sigma-Aldrich, cat. A9165), 10 mM nicotinamide (Sigma-Aldrich, cat. N0636), 1X B-27 supplement (Thermo Fisher Scientific, cat. 17504044), 1X N-2 supplement (Thermo Fisher Scientific, cat. 17502048), and 10 microM Y-27632 dihydrochloride (Tocris Bioscience, Bristol, United Kingdom, cat. 1254). The 624824-186-R-J2-PDC line was cultured in 6C/Colon 1B media, which includes all 6A media components plus 50 ng/mL human EGF recombinant protein (Thermo Fisher Scientific, cat. PHG0311). […]

[1] = second compound 0.00316 µM, first compound 0.0316 µM
[2] = second compound 0.00316 µM, first compound 0.1 µM
[3] = second compound 0.00316 µM, first compound 0.316 µM
[4] = second compound 0.00316 µM, first compound 1 µM
[5] = second compound 0.00316 µM, first compound 3.16 µM
[6] = second compound 0.00316 µM, first compound 10 µM
[7] = second compound 0.01 µM, first compound 0.0316 µM
[8] = second compound 0.01 µM, first compound 0.1 µM
[9] = second compound 0.01 µM, first compound 0.316 µM
[10] = second compound 0.01 µM, first compound 1 µM
[11] = second compound 0.01 µM, first compound 3.16 µM
[12] = second compound 0.01 µM, first compound 10 µM
[13] = second compound 0.0316 µM, first compound 0.0316 µM
[14] = second compound 0.0316 µM, first compound 0.1 µM
[15] = second compound 0.0316 µM, first compound 0.316 µM
[16] = second compound 0.0316 µM, first compound 1 µM
[17] = second compound 0.0316 µM, first compound 3.16 µM
[18] = second compound 0.0316 µM, first compound 10 µM
[19] = second compound 0.1 µM, first compound 0.0316 µM
[20] = second compound 0.1 µM, first compound 0.1 µM
[21] = second compound 0.1 µM, first compound 0.316 µM
[22] = second compound 0.1 µM, first compound 1 µM
[23] = second compound 0.1 µM, first compound 3.16 µM
[24] = second compound 0.1 µM, first compound 10 µM
[25] = second compound 0.316 µM, first compound 0.0316 µM
[26] = second compound 0.316 µM, first compound 0.1 µM
[27] = second compound 0.316 µM, first compound 0.316 µM
[28] = second compound 0.316 µM, first compound 1 µM
[29] = second compound 0.316 µM, first compound 3.16 µM
[30] = second compound 0.316 µM, first compound 10 µM
[31] = second compound 1 µM, first compound 0.0316 µM
[32] = second compound 1 µM, first compound 0.1 µM
[33] = second compound 1 µM, first compound 0.316 µM
[34] = second compound 1 µM, first compound 1 µM
[35] = second compound 1 µM, first compound 3.16 µM
[36] = second compound 1 µM, first compound 10 µM
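Note: spheroids exposed to agents for seven days before readout.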
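Throughout, for viability, T/C: percent of vehicle DMSO control viability so 100% = untreated growth.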

## C[C@@H](NC(=O)c1ncnc(N)c1Cl)c1ncc(C(=O)Nc2cc(C(F)(F)F)c(Cl)cn2)s1 + COc1c(OCCCN2CCOCC2)ccc2c3n(c(=NC(=O)c4cnc(N)nc4)nc12)CCN3
Second compound 0.00316 µM
  IC50: > 10 µM
Second compound 0.01 µM
  IC50: > 10 µM
Second compound 0.0316 µM
  IC50: > 10 µM
Second compound 0.1 µM
  IC50: < 0.0316 µM
Second compound 0.316 µM
  IC50: < 0.0316 µM
Second compound 1 µM
  IC50: < 0.0316 µM
[1]
  viability, T/C: 89.6%
[2]
  viability, T/C: 77.8%
[3]
  viability, T/C: 104%
[4]
  viability, T/C: 84.7%
[5]
  viability, T/C: 94.5%
[6]
  viability, T/C: 85.8%
[7]
  viability, T/C: 81%
[8]
  viability, T/C: 71.4%
[9]
  viability, T/C: 79.5%
[10]
  viability, T/C: 77.5%
[11]
  viability, T/C: 72.4%
[12]
  viability, T/C: 84.2%
[13]
  viability, T/C: 69.6%
[14]
  viability, T/C: 66.1%
[15]
  viability, T/C: 80.5%
[16]
  viability, T/C: 56%
[17]
  viability, T/C: 62.1%
[18]
  viability, T/C: 59.6%
[19]
  viability, T/C: 37.6%
[20]
  viability, T/C: 39.1%
[21]
  viability, T/C: 39.9%
[22]
  viability, T/C: 37%
[23]
  viability, T/C: 43.3%
[24]
  viability, T/C: 32.1%
[25]
  viability, T/C: 18.4%
[26]
  viability, T/C: 16.6%
[27]
  viability, T/C: 21%
[28]
  viability, T/C: 17.7%
[29]
  viability, T/C: 17.2%
[30]
  viability, T/C: 9.8%
[31]
  viability, T/C: 5.39%
[32]
  viability, T/C: 5.07%
[33]
  viability, T/C: 5.62%
[34]
  viability, T/C: 6.77%
[35]
  viability, T/C: 5.91%
[36]
  viability, T/C: 1.42%

## C#Cc1c(F)ccc2cc(O)cc(-c3ncc4c(N5CC6CCC(C5)N6)nc(OCC56CCCN5CC(F)C6)nc4c3F)c12 (centres undefined) + CC(Nc1ccc2c(c1)OCCn1cc(N3C(=O)OCC3C(F)F)nc1-2)C(N)=O
Second compound 0.00316 µM
  IC50: > 10 µM
Second compound 0.01 µM
  IC50: > 10 µM
Second compound 0.0316 µM
  IC50: > 10 µM
Second compound 0.1 µM
  IC50: 3.73 µM
Second compound 0.316 µM
  IC50: 0.0817 µM
Second compound 1 µM
  IC50: < 0.0316 µM
[1]
  viability, T/C: 91.8%
[2]
  viability, T/C: 72.8%
[3]
  viability, T/C: 76.1%
[4]
  viability, T/C: 82.2%
[5]
  viability, T/C: 72%
[6]
  viability, T/C: 50.7%
[7]
  viability, T/C: 83.7%
[8]
  viability, T/C: 73.6%
[9]
  viability, T/C: 78.6%
[10]
  viability, T/C: 71%
[11]
  viability, T/C: 75.6%
[12]
  viability, T/C: 59.5%
[13]
  viability, T/C: 74.6%
[14]
  viability, T/C: 67.4%
[15]
  viability, T/C: 68.9%
[16]
  viability, T/C: 58.8%
[17]
  viability, T/C: 56%
[18]
  viability, T/C: 56.1%
[19]
  viability, T/C: 62.9%
[20]
  viability, T/C: 56.3%
[21]
  viability, T/C: 61.9%
[22]
  viability, T/C: 61.1%
[23]
  viability, T/C: 49.3%
[24]
  viability, T/C: 38.9%
[25]
  viability, T/C: 56%
[26]
  viability, T/C: 45.9%
[27]
  viability, T/C: 46.7%
[28]
  viability, T/C: 38%
[29]
  viability, T/C: 39.4%
[30]
  viability, T/C: 32.6%
[31]
  viability, T/C: 46.1%
[32]
  viability, T/C: 38.7%
[33]
  viability, T/C: 45.1%
[34]
  viability, T/C: 36.6%
[35]
  viability, T/C: 33.2%
[36]
  viability, T/C: 26.6%
